Test results: US20140343049A1, “DIHYDROFURAN DERIVATIVES AS INSECTICIDAL COMPOUNDS” (SYNGENTA PARTICIPATIONS AG, priority 2011, published 2014)

Experiments:
Format in all cases: in vivo
[1] = system: Heliothis virescens (tobacco budworm); experiment: Heliothis virescens egg test on artificial diet; conditions: 96 h, 200 ppm (concentration in well 18 ppm), eggs 0-24 h old, 4 days, egg mortality, larval mortality, growth regulation
Experimental: Eggs (0-24 h old) were placed in 24-well microtiter plate on artificial diet and treated with test solutions at an application rate of 200 ppm (concentration in well 18 ppm) by pipetting. After an incubation period of 4 days, samples were checked for egg mortality, larval mortality, and growth regulation.

[2] = system: Thrips tabaci (onion thrips); experiment: Thrips tabaci sunflower leaf disc spray test; conditions: foliar, 168 h, sunflower leaf discs sprayed at 200 ppm, mixed ages, mortality after 7 days
Experimental: Sunflower leaf discs were placed on agar in a 24-well microtiter plate and sprayed with test solutions at an application rate of 200 ppm. […] After drying, the leaf discs were infested with a thrip population of mixed ages. After an incubation period of 7 days, samples were checked for mortality.

[3] = system: Spodoptera littoralis (Egyptian cotton leafworm); experiment: Spodoptera littoralis cotton leaf disc spray test; conditions: foliar, 72 h, cotton leaf discs sprayed at 200 ppm, 5 L1 larvae, mortality, feeding behavior, growth regulation 3 days after treatment
From the text: Cotton leaf discs were placed on agar in a 24-well microtiter plate and sprayed with test solutions at an application rate of 200 ppm. After drying, the leaf discs were infested with 5 L1 larvae. The samples were checked for mortality, feeding behavior, and growth regulation 3 days after treatment (DAT).

[4] = system: Myzus persicae (green peach aphid); experiment: Myzus persicae (sachet) mixed population test; conditions: 120 h, sucrose solution, application rate 12.5 ppm, mortality 5 days after infestation
From the text: Test compounds were applied by pipette into 24 well plates and mixed with Sucrose solution. The plates were closed with a stretched Parafilm. A plastic stencil with 24 holes is placed onto the plate and infested pea seedlings were placed directly on the Parafilm. The infested plate is closed with a gel blotting paper and another plastic stencil and then turned upside down. 5 days after infestation the samples were checked on mortality. Application rate: 12.5 ppm.

[5] = system: Tetranychus urticae (two-spotted spider mite); experiment: Tetranychus urticae bean leaf disc spray test; conditions: foliar, 192 h, bean leaf discs sprayed at 200 ppm, mixed ages, egg, larval and adult mortality 8 days later
From the text: Bean leaf discs on agar in 24-well microtiter plates were sprayed with test solutions at an application rate of 200 ppm. After drying, the leaf discs are infested with mite populations of mixed ages. 8 days later, discs are checked for egg mortality, larval mortality, and adult mortality. […]

[6] = system: Diabrotica balteata (corn root worm); experiment: Diabrotica balteata L2 larvae test on artificial diet; conditions: 120 h, 200 ppm (concentration in well 18 ppm), 5 days, larval mortality and growth regulation
Method in brief: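 Artificial diet treated with test solution at 200 ppm or 12.5 ppm application rate (in-well concentration stated as 18 ppm), dried, then infested with 6-10 L2 larvae per well. Larval mortality and growth regulation scored after 5 days.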

[7] = system: Plutella xylostella (diamond back moth); experiment: Plutella xylostella L2 larvae test on artificial diet; conditions: 144 h, 200 ppm (concentration in well 18 ppm), 6 days, larval mortality and growth regulation
Experimental: 24-well microtiter plate (MTP) with artificial diet was treated with test solutions at an application rate of 200 ppm (concentration in well 18 ppm) by pipetting. After drying, the MTPs were infested with L2 larvae (7-12 per well). After an incubation period of 6 days, samples were checked for larval mortality and growth regulation.

Cc1cc(C2=CC(c3cc(Cl)cc(Cl)c3)(C(F)(F)F)OC2)ccc1C(=O)NC1CSC1 (stereo not shown) [Compound A2]
≥ 80%: pest or weed control at 200 ppm [1] | pest or weed control at 200 ppm [2] | pest or weed control at 200 ppm [3] | pest or weed control at 12.5 ppm [4] | pest or weed control at 200 ppm [5]

Cc1cc(C2=CC(c3cc(Cl)cc(Cl)c3)(C(F)(F)F)OC2)ccc1C(=O)NCc1ccc(S(C)(=O)=O)cc1 (stereo not shown) [Compound A25]
≥ 80%: pest or weed control at 200 ppm [1] | pest or weed control at 200 ppm [6] | pest or weed control at 200 ppm [3] | pest or weed control at 200 ppm [7] | pest or weed control at 12.5 ppm [4] | pest or weed control at 200 ppm [5]

Cc1cc(C2=CC(c3cc(Cl)cc(Cl)c3)(C(F)(F)F)OC2)ccc1C(=O)NC1C[S+]([O-])C1 (stereo not shown) [Compound A77]
≥ 80%: pest or weed control at 200 ppm [2] | pest or weed control at 12.5 ppm [4]

Cc1cc(C2=CC(c3cc(Cl)cc(Cl)c3)(C(F)(F)F)OC2)ccc1C(=O)NCC1CSC1 (stereo not shown) [Compound A78]
≥ 80%: pest or weed control at 200 ppm [1] | pest or weed control at 200 ppm [2] | pest or weed control at 200 ppm [6] | pest or weed control at 200 ppm [3] | pest or weed control at 200 ppm [7] | pest or weed control at 12.5 ppm [4] | pest or weed control at 200 ppm [5]

Cc1cc(C2=CC(c3cc(Cl)cc(Cl)c3)(C(F)(F)F)OC2)ccc1C(=O)NCCC1CSC1 (stereo not shown) [Compound A82]
≥ 80%: pest or weed control at 200 ppm [1] | pest or weed control at 200 ppm [2] | pest or weed control at 200 ppm [6] | pest or weed control at 200 ppm [3] | pest or weed control at 200 ppm [7] | pest or weed control at 12.5 ppm [4] | pest or weed control at 200 ppm [5]

Cc1cc(C2=CC(c3cc(Cl)cc(Cl)c3)(C(F)(F)F)OC2)ccc1C(=O)NCCC1CS(=O)(=O)C1 (stereo not shown) [Compound A83]
≥ 80%: pest or weed control at 200 ppm [1] | pest or weed control at 200 ppm [6] | pest or weed control at 200 ppm [3] | pest or weed control at 200 ppm [7] | pest or weed control at 12.5 ppm [4] | pest or weed control at 200 ppm [5]

Cc1nc(C2=CC(c3cc(Cl)cc(Cl)c3)(C(F)(F)F)OC2)ccc1C(=O)NC1C[S+]([O-])C1 (stereo not shown) [Compound C22]
≥ 80%: pest or weed control at 200 ppm [1] | pest or weed control at 200 ppm [2] | pest or weed control at 200 ppm [6] | pest or weed control at 200 ppm [3] | pest or weed control at 200 ppm [7] | pest or weed control at 12.5 ppm [4] | pest or weed control at 200 ppm [5]

CCCCNC(=O)c1ccc(C2=CC(c3cc(Cl)cc(Cl)c3)(C(F)(F)F)OC2)cc1C (stereo not shown) [Compound D3]
≥ 80%: pest or weed control at 200 ppm [2] | pest or weed control at 12.5 ppm [4] | pest or weed control at 200 ppm [5]

COCC(C)NC(=O)c1ccc(C2=CC(c3cc(Cl)cc(Cl)c3)(C(F)(F)F)OC2)cc1C (stereo not shown) [Compound D4]
≥ 80%: pest or weed control at 200 ppm [2] | pest or weed control at 12.5 ppm [4] | pest or weed control at 200 ppm [5]

Cc1cc(C2=CC(c3cc(Cl)cc(Cl)c3)(C(F)(F)F)OC2)ccc1C(=O)NCc1ccccc1 (stereo not shown) [Compound D9]
≥ 80%: pest or weed control at 200 ppm [1] | pest or weed control at 200 ppm [2] | pest or weed control at 200 ppm [3] | pest or weed control at 200 ppm [7] | pest or weed control at 12.5 ppm [4] | pest or weed control at 200 ppm [5]

Cc1cc(C2=CC(c3cc(Cl)cc(Cl)c3)(C(F)(F)F)OC2)ccc1C(=O)NCc1ccccc1F (stereo not shown) [Compound D10]
≥ 80%: pest or weed control at 200 ppm [1] | pest or weed control at 200 ppm [2] | pest or weed control at 200 ppm [6] | pest or weed control at 200 ppm [3] | pest or weed control at 200 ppm [7] | pest or weed control at 12.5 ppm [4] | pest or weed control at 200 ppm [5]

Cc1cc(C2=CC(c3cc(Cl)cc(Cl)c3)(C(F)(F)F)OC2)ccc1C(=O)NC(C)c1ccccc1 (stereo not shown) [Compound D11]
≥ 80%: pest or weed control at 200 ppm [2] | pest or weed control at 200 ppm [6] | pest or weed control at 12.5 ppm [4]

COc1ccc(CNC(=O)c2ccc(C3=CC(c4cc(Cl)cc(Cl)c4)(C(F)(F)F)OC3)cc2C)cc1 (stereo not shown) [Compound D12]
≥ 80%: pest or weed control at 200 ppm [2] | pest or weed control at 200 ppm [6] | pest or weed control at 12.5 ppm [4]

Cc1cc(C2=CC(c3cc(Cl)cc(Cl)c3)(C(F)(F)F)OC2)ccc1C(=O)NCc1ccc(Cl)nc1 (stereo not shown) [Compound D13]
≥ 80%: pest or weed control at 200 ppm [6] | pest or weed control at 12.5 ppm [4]

Cc1cc(C2=CC(c3cc(Cl)cc(Cl)c3)(C(F)(F)F)OC2)ccc1C(=O)Nc1cccc(F)c1 (stereo not shown) [Compound D14]
≥ 80%: pest or weed control at 200 ppm [6] | pest or weed control at 12.5 ppm [4] | pest or weed control at 200 ppm [5]

Cc1cc(NC(=O)c2ccc(C3=CC(c4cc(Cl)cc(Cl)c4)(C(F)(F)F)OC3)cc2C)n(C)n1 (stereo not shown) [Compound D16]
≥ 80%: pest or weed control at 200 ppm [2] | pest or weed control at 200 ppm [6] | pest or weed control at 12.5 ppm [4]

Cc1csc(NC(=O)c2ccc(C3=CC(c4cc(Cl)cc(Cl)c4)(C(F)(F)F)OC3)cc2C)n1 (stereo not shown) [Compound D17]
≥ 80%: pest or weed control at 200 ppm [6] | pest or weed control at 12.5 ppm [4]

Cc1cc(C2=CC(c3cc(Cl)cc(Cl)c3)(C(F)(F)F)OC2)ccc1C(=O)NC1(C)CSC1 (stereo not shown) [Compound D18]
≥ 80%: pest or weed control at 200 ppm [2] | pest or weed control at 200 ppm [6] | pest or weed control at 12.5 ppm [4]

CSCC(C)(C)NC(=O)c1ccc(C2=CC(c3cc(Cl)cc(Cl)c3)(C(F)(F)F)OC2)cc1C (stereo not shown) [Compound D19]
≥ 80%: pest or weed control at 200 ppm [1] | pest or weed control at 200 ppm [6] | pest or weed control at 200 ppm [3] | pest or weed control at 200 ppm [7] | pest or weed control at 12.5 ppm [4] | pest or weed control at 200 ppm [5]

Cc1cc(C2=CC(c3cc(Cl)cc(Cl)c3)(C(F)(F)F)OC2)ccc1C(=O)NC1CCC1 (stereo not shown) [Compound D23]
≥ 80%: pest or weed control at 200 ppm [2] | pest or weed control at 200 ppm [6] | pest or weed control at 200 ppm [7] | pest or weed control at 12.5 ppm [4]

Cc1cc(C2=COC(c3cc(Cl)cc(Cl)c3)(C(F)(F)F)C2)ccc1C(=O)N[C@@H]1CON(CC(F)(F)F)C1=O (stereo partly drawn) [Compound D25, 4-[2-(3,5-dichlorophenyl)-2-(trifluoromethyl)-3H-furan-4-yl]-2-methyl-N-[(4R)-3-oxo-2-(2,2,2-trifluoroethyl)isoxazolidin-4-yl]benzamide]
≥ 80%: pest or weed control at 200 ppm [1] | pest or weed control at 200 ppm [2] | pest or weed control at 200 ppm [6] | pest or weed control at 200 ppm [3] | pest or weed control at 200 ppm [7] | pest or weed control at 12.5 ppm [4] | pest or weed control at 200 ppm [5]

N#Cc1cc(C2=CO[C@@](c3cc(Cl)cc(Cl)c3)(C(F)(F)F)C2)ccc1-n1cncn1 [H1*, 5-[(2S)-2-(3,5-dichlorophenyl)-2-(trifluoromethyl)-3H-furan-4-yl]-2-(1,2,4-triazol-1-yl)benzonitrile]
≥ 80%: pest or weed control at 200 ppm [1] | pest or weed control at 200 ppm [2] | pest or weed control at 200 ppm [6] | pest or weed control at 200 ppm [7] | pest or weed control at 12.5 ppm [4]
